Measured values taken from patent US20250283124A1, “POLYHYDROXYALKANOATE-PRODUCING BACTERIA AND METHODS FOR MAKING AND USING THEM” (SAN DIEGO STATE UNIVERSITY (SDSU) FOUNDATION, DBA SAN DIEGO …, priority 2021, published 2025).

System: LW8
Assay: Antibiotic susceptibility testing (antibiotic disks), strain LW8
Assay type: cell-based, Methylosinus sp.
Conditions: antibiotic disks on solid P0% media, methane:air, one week, disk content as in column head
Description: Antibiotic Resistance Tests: To identify genetic markers suitable for genetic manipulation of PHA producing cultures, an antibiotic-resistance screening using antibiotic disks was performed. All strains were plated onto solid P0% media by spreading, then up to 4 antibiotic disks were placed on top. The plates were incubated under methane:air for one week and then were evaluated.

Compound: [H]/N=C(/N)N[C@H]1[C@H](O)[C@@H](O)[C@H](O[C@@H]2O[C@@H](C)[C@](O)(C=O)[C@H]2O[C@@H]2O[C@@H](CO)[C@H](O)[C@@H](O)[C@@H]2NC)[C@@H](N/C(N)=N\[H])[C@@H]1O [Streptomycin]
- Antibiotic susceptibility testing (AST) results: Resistant
